In ChEMBL document CHEMBL5107958, “Phosphoramidate Prodrugs Continue to Deliver, The Journey of Remdesivir (GS-5734) from RSV to SARS-CoV-2” (ACS Med Chem Lett, 2022):

Columns and labels:
[1] = system: Hepatitis C virus; assay: Antiviral activity against HCV assessed as reduction in viral replication by measuring parent nucleoside compound; type: functional, organism-based, Hepacivirus hominis
[2] = system: Hepatitis C virus; assay: Antiviral activity against HCV assessed as reduction in viral replication by measuring monophosphate prodrug metabolite; type: functional, organism-based, Hepacivirus hominis
[3] = AUC (0 to infinity) in cynomolgus monkey at 5 mg/kg, po measured for 0.25 to 4 hrs post-administration; type: ADME, organism-based, Macaca fascicularis; parameters: time upper 4 hrs, dose 5 mg/kg, time lower 0.25 hrs, route po; conditions: in vivo
[4] = Prodrug conversion in cynomolgus monkey assessed as AUC (0 to last) of parent nucleoside compound at 5 mg/kg, po measured for 0.25 to 4 hrs post-administration; type: ADME, organism-based, Macaca fascicularis; parameters: time lower 0.25 hrs, dose 5 mg/kg, time upper 4 hrs, route po; conditions: in vivo
[5] = AUC (0 to infinity) in dog at 5 mg/kg, po via gavage measured for 0.25 to 24 hrs post-administration; type: ADME, organism-based, Canis lupus familiaris; parameters: dose 5 mg/kg, time upper 24 hrs, time lower 0.25 hrs, route po; conditions: in vivo
[6] = Prodrug conversion in dog assessed as AUC (0 to last) of parent nucleoside compound at 5 mg/kg, po via gavage measured for 0.25 to 24 hrs post-administration; type: ADME, organism-based, Canis lupus familiaris; parameters: time upper 24 hrs, time lower 0.25 hrs, dose 5 mg/kg, route po; conditions: in vivo
[7] = Half life in Beagle dog at 0.5 mg/kg, iv measured for 0.08 to 24 hrs post-dose; type: ADME, organism-based, Canis lupus familiaris; conditions: in vivo, time 0.08-24 hrs
[8] = Volume of distribution at steady state in Beagle dog at 0.5 mg/kg, iv measured for 0.08 to 24 hrs post-dose; type: ADME, organism-based, Canis lupus familiaris; conditions: in vivo, time 0.08-24 hrs, read-out: Vdss
[9] = AUC (0 to infinity) in Beagle dog at 0.5 mg/kg, iv measured for 0.08 to 24 hrs post-dose; type: ADME, organism-based, Canis lupus familiaris; parameters: dose 0.5 mg/kg, time upper 24 hrs, time lower 0.08 hrs, route iv; conditions: in vivo
[10] = AUC (0 to infinity) in Beagle dog at 3 mg/kg, po via gavage measured for 0.08 to 24 hrs post-dose; type: ADME, organism-based, Canis lupus familiaris; parameters: time lower 0.08 hrs, dose 3 mg/kg, time upper 24 hrs, route po; conditions: in vivo
[11] = Oral bioavailability in Beagle dog at 3 mg/kg administered via gavage measured for 0.08 to 24 hrs post-dose; type: ADME, organism-based, Canis lupus familiaris; conditions: in vivo, time 0.08-24 hrs
[12] = AUC (0 to infinity) in overnight fasted dog at 100 mg/kg, po measured upto 24 hrs; type: ADME, organism-based, Canis lupus familiaris; parameters: dose 100 mg/kg, time < 24 hrs, route po; conditions: in vivo
[13] = Prodrug conversion in overnight fasted dog assessed as AUC (0 to last) of parent nucleoside compound at 100 mg/kg, po measured upto 24 hrs; type: ADME, organism-based, Canis lupus familiaris; parameters: dose 100 mg/kg, time < 24 hrs, route po; conditions: in vivo
[14] = AUC (0 to infinity) in cynomolgus monkey at 30 mg/kg, po; type: ADME, organism-based, Macaca fascicularis; parameters: time infinity, dose 30 mg/kg, route po; conditions: in vivo
[15] = Prodrug conversion in cynomolgus monkey assessed as AUC (0 to last) of parent nucleoside compound at 30 mg/kg, po; type: ADME, organism-based, Macaca fascicularis; parameters: time 0 - last, dose 30 mg/kg, route po; conditions: in vivo
[16] = Prodrug conversion in cynomolgus monkey lung assessed as triphosphate metabolite formation at 30 mg/kg, po measured after 24 hrs; type: ADME, organism-based, Macaca fascicularis; conditions: in vivo
[17] = system: Ebolavirus; assay: Antiviral activity against Ebola infected in human macrophages assessed as reduction in viral replication; type: functional, organism-based; conditions: Orthoebolavirus, Macrophage
[18] = system: Ebolavirus; assay: Antiviral activity against Ebola infected in human HeLa cells assessed as reduction in viral replication; type: functional, organism-based; conditions: Orthoebolavirus
[19] = system: Marburgvirus; assay: Antiviral activity against MARV Rec. Bat371-GFP infected in human Huh-7 cells assessed as reduction in viral replication incubated for 48 to 144 hrs by fluorescence based assay; type: functional, organism-based; conditions: Orthomarburgvirus
[20] = system: Nipah virus; assay: Antiviral activity against Nipah M1999 infected in human HeLa cells assessed as reduction in viral replication incubated for 48 to 144 hrs by reporter virus assay; type: functional, organism-based; conditions: Henipavirus nipahense
[21] = system: Nipah virus; assay: Antiviral activity against Nipah B2004 infected in human NCI-H358 cells assessed as reduction in viral replication incubated for 48 to 144 hrs by reporter virus assay; type: functional, organism-based; conditions: Henipavirus nipahense
[22] = system: Measles morbillivirus; assay: Antiviral activity against Measles Rec.rMVEZGFP(3) infected in human HeLa cells assessed as reduction in viral replication incubated for 48 to 144 hrs by fluorescence based assay; type: functional, organism-based
[23] = system: Measles morbillivirus; assay: Antiviral activity against Measles virus infected in HMVEC cells assessed as reduction in viral replication; type: functional, organism-based
[24] = system: SARS-CoV; assay: Antiviral activity against SARS-CoV infected in HAE cells assessed as reduction in viral replication at MOI of 0.5 preincubated for 3 hrs followed by virus removal measured after 48 hrs by Hoechst 33258 staining based assay; type: functional, organism-based; conditions: Severe acute respiratory syndrome-related coronavirus
[25] = system: SARS-CoV-2; assay: Antiviral activity against SARS-CoV-2 infected in human A549 cells expressing hACE2 assessed as reduction in viral replication at MOI of 0.025 incubated for 48 hrs by luciferase based assay; type: functional, organism-based; conditions: Severe acute respiratory syndrome coronavirus 2, A549, 48 h
[26] = system: SARS-CoV-2; assay: Antiviral activity against SARS-CoV-2 infected in human Huh-7 cells assessed as reduction in virus-induced cytopathic effect at MOI of 0.0037 measured after 4 days by MTS assay; type: functional, organism-based; conditions: Severe acute respiratory syndrome coronavirus 2, Huh-7, 96 h
[27] = system: SARS-CoV-2; assay: Antiviral activity against SARS-CoV-2 infected in African green monkey Vero E6 cells assessed as reduction in viral replication; type: functional, organism-based; conditions: Severe acute respiratory syndrome coronavirus 2, Vero C1008
[28] = system: SARS-CoV-2; assay: Antiviral activity against SARS-CoV-2 infected in human Caco-2 cells assessed as reduction in viral replication at MOI of 0.01 measured after 72 hrs by qRT-PCR analysis; type: functional, organism-based; conditions: Severe acute respiratory syndrome coronavirus 2, Caco-2, 72 h
[29] = system: SARS-CoV-2; assay: Antiviral activity against SARS-CoV-2 infected in human Calu-3 cells assessed as reduction in viral replication at MOI of 0.01 measured after 72 hrs by qRT-PCR analysis; type: functional, organism-based; conditions: Severe acute respiratory syndrome coronavirus 2, Calu-3, 72 h
[30] = system: SARS-CoV-2; assay: Antiviral activity against SARS-CoV-2 infected in human Calu-3 2B4 cells assessed as reduction in viral replication at MOI of 0.01 preincubated for 2 hrs followed by viral infection for 30 mins and subsequent virus removal and addition of medium containing compound measured after 72 hrs by RT-qPCR analysis; type: functional, organism-based; conditions: Severe acute respiratory syndrome coronavirus 2, Calu-3 2B4
[31] = system: SARS-CoV-2; assay: Antiviral activity against SARS-CoV-2 infected in human PSC-derived lung epithelial cells assessed as reduction in viral replication; type: functional, organism-based; conditions: Severe acute respiratory syndrome coronavirus 2, Epithelial cell
[32] = system: Middle East respiratory syndrome-related coronavirus; assay: Antiviral activity against MERS-CoV infected in HAE cells assessed as reduction in viral replication at MOI of 0.5 incubated for 3 hrs followed by virus removal measured after 48 hrs by Hoechst 33258 staining based assay; type: functional, organism-based
[33] = system: Hepatitis C virus; assay: Antiviral activity against HCV infected in human Huh-7 cells expressing Ces1 assessed as reduction in viral replication by measuring monophosphate prodrug metabolite; type: functional, organism-based, Hepacivirus hominis

CC(C)OC(=O)[C@H](C)N[P@](=O)(OC[C@H]1O[C@@H](n2ccc(=O)[nH]c2=O)[C@@](C)(F)[C@@H]1O)Oc1ccccc1
EC50 [1]: > 50000 nM | EC50 [2]: 420 nM | AUC(0-inf) [3]: 0.16 µM·h | AUClast [4]: 0.12 µM·h | AUC(0-inf) [5]: 0.78 µM·h | AUClast [6]: 27 µM·h

CC(C)OC(=O)[C@H](C)N[P@](=O)(OC[C@H]1O[C@@](C#N)(c2cnc3c(N)ncnn23)[C@](C)(O)[C@@H]1OC(=O)C(C)C)Oc1ccccc1
EC50 [1]: > 89000 nM | EC50 [2]: 460 nM

CCOC(=O)[C@H](C)N[P@@]1(=O)OC[C@H]2O[C@@H](n3cnc4c(OCC)nc(N)nc43)[C@](C)(F)[C@@H]2O1
half-life [7]: 18 min | Vd [8]: 0.5 L/kg | AUC(0-inf) [9]: 0.61 µM·h | AUC(0-inf) [10]: 1.6 µM·h | bioavailability [11]: 44%

COC(=O)[C@H](C)NP(=O)(OC[C@@H]1C=C[C@H](n2cc(C)c(=O)[nH]c2=O)O1)Oc1ccc(Br)cc1 (stereo not given in full)
AUC(0-inf) [12]: 23.1 µM·h | AUClast [13]: 262 µM·h

CNc1nc(N)nc2c1ncn2[C@@H]1O[C@H](COP(=O)(N[C@@H](C)C(=O)OC(C)C)Oc2ccccc2)[C@@H](O)[C@@]1(C)F (stereo not given in full) [BEMNIFOSBUVIR]
EC50 [1]: 69000 nM | EC50 [2]: 13 nM

CNc1nc(N)nc2c1ncn2[C@@H]1O[C@H](CO[P@@](=O)(N[C@@H](C)C(=O)OC(C)C)Oc2ccccc2)[C@@H](O)[C@@]1(C)F [BEMNIFOSBUVIR]
AUC(0-inf) [14]: 0.44 µM·h | AUClast [15]: 1.56 µM·h | Drug metabolism [16]: 0.14 nmol/g

COc1nc(N)nc2c1ncn2[C@@H]1O[C@H](COP(=O)(N[C@@H](C)C(=O)OCC(C)(C)C)Oc2cccc3ccccc23)[C@@H](O)[C@@]1(C)O (stereo not given in full) [BMS-986094]
EC50 [1]: 3500 nM | EC50 [2]: 35 nM | AUC(0-inf) [14]: 0.026 µM·h

N#C[C@@]1(c2ccc3c(N)ncnn23)O[C@H](CO)[C@@H](O)[C@H]1O [GS-441524]
EC50 [17]: > 20000 nM | EC50 [18]: > 20000 nM | EC50 [19]: 1900 nM | EC50 [20]: 2120 nM | EC50 [21]: 2460 nM | EC50 [22]: 1000 nM | EC50 [23]: 770 nM | EC50 [24]: 180 nM | EC50 [25]: 869 nM | EC50 [26]: 1100 nM | EC50 [27]: 470 nM | EC50 [28]: 80 nM | EC50 [29]: 250 nM | EC50 [30]: 620 nM | EC50 [31]: 740 nM | EC50 [32]: 860 nM

CC(C)OC(=O)[C@@H](C)N[P@@](=O)(OC[C@H]1O[C@@H](n2ccc(=O)[nH]c2=O)[C@](C)(Cl)[C@@H]1O)Oc1ccccc1 [UPRIFOSBUVIR]
EC50 [33]: 320 nM
